Literature values in patent US7696242B2, “Hepatitis C inhibitor peptide analogs” (Boehringer Ingelheim International GmbH, priority 2004, dated 2010).

Tested on: hepatitis C virus
Conditions: two day clinical trial, patients infected with the hepatitis C virus

In the case of COc1ccc2c(O[C@@H]3C[C@H]4C(=O)N[C@]5(C(=O)O)C[C@H]5/C=C\CCCCC[C@H](NC(=O)OC5CCCC5)C(=O)N4C3)cc(-c3csc(NC(C)C)n3)nc2c1 [BILN 2061], the “reduction of viral loads in patients” value is given as “effective in rapidly reducing viral loads”.
